Values quoted from earlier work in patent publication US5786344A, “Camptothecin drug combinations and methods with reduced side effects” (priority 1995, dated 1998).
“Also recorded” adds a separate entry of the source. Structures can show the parent of a compound that is named as a salt. Where two headings read alike, the source gives them in different places.

Experiments:
[1] = cited from earlier work
p-glycoprotein = conditions: cited from earlier work
[2] = cited from earlier work; for duration of action: intramuscular or subcutaneous
[3] = plasma/serum/terminal or elimination half-life

## O=C1CN=C(c2ccccc2Cl)c2cc([N+](=O)[O-])ccc2N1 [Clonazepam, 2H-1,4-Benzodiazepin-2-one, 5-(2-chlorophenyl)-1,3-dihydro-7-nitro-]
[1]; human, in vivo
  therapeutic plasma levels: 20 to 80 ng/mL

## CC(=O)[C@H]1CC[C@H]2[C@@H]3CCC4=CC(=O)CC[C@]4(C)[C@H]3CC[C@]12C [progesterone]
p-glycoprotein
  inhibition of / interaction with p-glycoprotein: inhibited the transporting activity of p-glycoprotein; also recorded: inhibits their drug efflux

## COc1ccc(C[C@H](N)C(=O)N[C@H]2[C@@H](O)[C@H](n3cnc4c(N(C)C)ncnc43)O[C@@H]2CO)cc1 [puromycin]
p-glycoprotein
  inhibition of / interaction with p-glycoprotein: interacted with p-glycoprotein

## CC(C)(Oc1ccc(C2CC2(Cl)Cl)cc1)C(=O)O (stereo not drawn) [ciprofibrate]
[2]; human, in vivo
  potency relative to clofibrate: more potent than clofibrate

## COc1cccc2c1C(=O)c1c(O)c3c(c(O)c1C2=O)C[C@@](O)(C(C)O)C[C@@H]3O[C@H]1C[C@H](N)[C@H](O)[C@H](C)O1 (stereo partly drawn) [daunorubicinol]
[1]; [3]
  half-life: about 27 hr

## OCCN(CCO)c1nc(N2CCCCC2)c2nc(N(CCO)CCO)nc(N3CCCCC3)c2n1 [Dipyridamole, [2,6-Bis(diethanolamino)-4,9-dipiperidinopyrimido-(5,4-d)pyrimidine]
[2]; human, in vivo
  clinical toxicity: quite nontoxic

## COc1cccc2c1C(=O)c1c(O)c3c(c(O)c1C2=O)C[C@@](O)(C(=O)CO)C[C@@H]3O[C@H]1C[C@H](N)[C@H](O)[C@H](C)O1 [doxorubicin, 5,12-Naphthacenedione, (8s-cis)-10-[(3-amino-2,3,6-trideoxy-α-L-lyxo-hexopyranosyl)oxy)-7,8,9,10-tetrahydro-6,8,11-trihydroxy-8-(hydroxyacetyl)-1-methoxy-hydrochloride]
[1]; human, in vivo, po
  oral absorption: absorbed poorly
[1]; [3]
  half-life: about 30 hr
p-glycoprotein
  inhibition of / interaction with p-glycoprotein: interacted with p-glycoprotein

## COc1ccc(CCN(C)CCCC(C#N)(c2ccc(OC)c(OC)c2)C(C)C)cc1OC (stereo not drawn) [Verapamil hydrochloride, benzeneacetonitrile, α-[3-[[2-(3,4-dimethoxyphenyl)ethyl]-methylamino]propyl]-3,4-dime thoxy-a-(l-methylethyl)-, hydrochloride]
[1]; % of dose
  excreted unchanged (urine): less than 5%
  fecal excretion: 16%
[1]; % of oral dose
  oral absorption: more than 90%

## CCCCCCC(=O)OCCN1CCN(CCCN2c3ccccc3Sc3ccc(C(F)(F)F)cc32)CC1 [Fluphenazine enanthate]
[2]; listed as enanthate salt
  duration of action: 2 wk

## O=C1NC(=O)C(c2ccccc2)(c2ccccc2)N1 [Phenytoin, 2,4-Imidazolidinedione, 5,5-diphenyl-]
[1]; human, in vivo
  lethal plasma levels: ~100 µg/mL

## COc1ccc2cc1Oc1ccc(cc1)C[C@H]1c3c(cc4c(c3Oc3cc5c(cc3OC)CCN(C)[C@@H]5C2)OCO4)CCN1C [cepharanthine]
p-glycoprotein; photolabeling
  inhibition of photoaffinity labeling of p-glycoprotein: showed inhibition

## CC(C)(Oc1ccc(CCNC(=O)c2ccc(Cl)cc2)cc1)C(=O)O [bezafibrate]
[2]; human, in vivo
  potency relative to clofibrate: more potent than clofibrate

## CCN1CCN(C(=O)N[C@@H](C(=O)N[C@@H]2C(=O)N3C(C(=O)O)=C(CSc4nnnn4C)CS[C@H]23)c2ccc(O)cc2)C(=O)C1=O [Cefoperazone]
[1]; human, in vivo, im
  peak plasma concentration: 80 to 120 µg/mL
[1]; human, in vivo, iv
  peak plasma concentration: 250 to 357 µg/mL
[1]; human, in vivo
  biliary secretion: 70%
  urinary excretion: 30%
[1]; oral
  oral absorption: absorbed poorly

## CO[C@H]1/C=C/O[C@@]2(C)Oc3c(C)c(O)c4c(O)c(c(/C=N/N5CCN(C)CC5)c(O)c4c3C2=O)NC(=O)/C(C)=C\C=C\[C@H](C)[C@H](O)[C@@H](C)[C@@H](O)[C@@H](C)[C@H](OC(C)=O)[C@@H]1C [Rifampin, Rifamycin, 3-[[(4-methyl-1-piperazinyl)imino]methyl]-]
[1]; human, in vivo
  duration of effective levels: 8 to 10 h

## CCC1(c2ccccc2)C(=O)NC(=O)NC1=O [Phenobarbital, 2,4,6(1H,3H,5H)-Pyrimidinetrione, 5-ethyl-5-phenyl-]
[1]; % of oral dose
  oral absorption: Approximately 80%
[1]; human, in vivo
  therapeutic plasma levels: 10000 to 30000 ng/mL
[1]; human, plasma
  time to peak plasma level: 16 to 18 h

## CCOC(=O)N(C)[C@@H]1C[C@H]2O[C@@](C)([C@@H]1OC)n1c3ccccc3c3c4c(c5c6ccccc6n2c5c31)C(=O)NC4=O [NA-382, N-ethoxycarbonyl-7-oxo-staurosporine]
p-glycoprotein
  inhibition of / interaction with p-glycoprotein: inhibiting drug binding to p-glycoprotein

## CC(C)OC(=O)C(C)(C)Oc1ccc(C(=O)c2ccc(Cl)cc2)cc1 [fenofibrate]
[2]; human, in vivo
  potency relative to clofibrate: more potent than clofibrate

## CN(C)CCCN1c2ccccc2Sc2ccc(Cl)cc21 [Chlorpromazine hydrochloride, 10H-Phenothiazine-10-propanamine, 2-chloro-N,N-dimethyl-, mono hydrochloride]
[1]; human, in vivo, im
  volume of distribution: 21.8 L/kg
[1]; human, in vivo, po
  bioavailability / dose reaching the systemic circulation: 32%
  volume of distribution: 80.6 L/kg

## C=C1[C@@H](C)[C@H]2[C@H](Cc3ccccc3)NC(=O)[C@]23OC(=O)/C=C/[C@H](O)CCC[C@@H](C)C/C=C/[C@H]3[C@@H]1O [cytochalasin B]
p-glycoprotein
  inhibition of / interaction with p-glycoprotein: inhibiting p-glycoprotein

## CC(=O)O[C@@]12CO[C@@H]1C[C@H](O)[C@@]1(C)C(=O)[C@H](O)C3=C(C)[C@@H](OC(=O)[C@H](O)[C@@H](NC(=O)OC(C)(C)C)c4ccccc4)C[C@@](O)([C@@H](OC(=O)c4ccccc4)[C@H]21)C3(C)C [Taxotere]
p-glycoprotein
  inhibition of / interaction with p-glycoprotein: p-glycoprotein inhibitors

## CN(C)CCCN1c2ccccc2Sc2ccc(C(F)(F)F)cc21 [Triflupromazine hydrochloride, 1OH-Phenothiazine-10-propanamine, N,N-dimethyl-2-(trifluoromethyl)-monohydrochloride]
[2]; human, in vivo
  potency relative to chlorpromazine / other phenothiazines: somewhat more potent

## CCCCCCCCCC(=O)OCCN1CCN(CCCN2c3ccccc3Sc3ccc(C(F)(F)F)cc32)CC1 [Fluphenazine decanoate]
[2]
  duration of action: about 4 wk

## C=C[C@@]1(C)CC(=O)[C@@H]2[C@@]3(C)CCCC(C)(C)[C@@H]3[C@H](O)[C@H](OC(C)=O)[C@@]2(C)O1 [1,9-dideoxyforskolina]
p-glycoprotein
  inhibition of / interaction with p-glycoprotein: p-glycoprotein inhibitors

## CC(=O)[C@H]1CC[C@H]2[C@@H]3CC=C4C[C@@H](O)CC[C@]4(C)[C@H]3CC[C@]12C [pregnenolone]
p-glycoprotein
  inhibition of / interaction with p-glycoprotein: inhibited the transporting activity of p-glycoprotein

## CCN(CC)CCCC(C)Nc1ccnc2cc(Cl)ccc12 (stereo not drawn) [Chloroquine phosphate, 1,4-Pentanediamine, N^4-(7-chloro-4-quinolinyl)-N^1, N^1-diethyl-, phosphate (1:2)]
[1]; oral
  oral absorption: absorbed almost completely

## CS(=O)(=O)O.C[C@]12C=CC(=O)C=C1CC[C@@H]1C2=CC[C@]2(C)[C@@H](C(=O)CN3CCN(c4cc(N5CCCC5)nc(N5CCCC5)n4)CC3)CC[C@@H]12 [U-74389F]
p-glycoprotein
  inhibition of / interaction with p-glycoprotein: potent inhibitors

## COc1cc([C@@H]2c3cc4c(cc3[C@@H](O[C@@H]3O[C@@H]5CO[C@@H](C)O[C@H]5[C@H](O)[C@H]3O)[C@H]3COC(=O)[C@H]23)OCO4)cc(OC)c1O [etoposide]
[1]; human, in vivo, iv
  peak plasma concentration: 30 µg/mL
[1]; human, in vivo, po
  oral absorption: about 50%
[1]; human, in vivo
  concentration in CSF relative to plasma: 1-10%
  excreted unchanged (urine): Approximately 40%
  half-life: about 8 hours
p-glycoprotein
  inhibition of / interaction with p-glycoprotein: interacted with p-glycoprotein

## C=CC1CN2CCC1CC2C(O)c1ccnc2ccc(OC)cc12 (stereo not drawn) [Quinidine polygalacturonate]
[2]; human, in vivo
  gastrointestinal side effects: lesser incidence and severity of gastrointestinal side effects
